What all share (format): biochemical
In assay [1] the target is T1, Recombinant human JAK1 catalytic domain (Homo sapiens, UniProt P23458).
T1 construct: catalytic domain (amino acids 866-1154; catalog number PV4774); purchased Invitrogen PV4774
Description: JAK1 assay polyGT substrate. The note with it: 33P-gamma-ATP filter assay, 2 μM ATP. Here is the method: Recombinant human JAK1 catalytic domain (amino acids 866-1154; catalog number PV4774) was purchased from Invitrogen. 25 ng of JAK1 was incubated with 6.25 μg polyGT substrate (Sigma catalog number P0275) in kinase reaction buffer (15 mM Hepes pH7.5, 0.01% Tween20, 10 mM MgCl2, 2 μM non-radioactive ATP, 0.25 μCi ^33P-gamma-ATP (Perkin Elmer, catalog number NEG602K001MC) final concentrations) with or without 5 μL containing test compound or vehicle (DMSO, 1% final concentration), in a total volume of 25 μL, in a polypropylene 96-well plate (Greiner, V-bottom). After 75 min at 30° C., reactions were stopped by adding of 25 μL/well of 150 mM phosphoric acid. All of the terminated kinase reaction was transferred to prewashed (75 mM phosphoric acid) 96 well filter plates (Perkin Elmer catalog number 6005177) using a cell harvester (Perkin Elmer). Plates were washed 6 times with 300 μL per well of a 75 mM phosphoric acid solution and the bottom of the plates was sealed. 40 μL/well of Microscint-20 was added, the top of the plates was sealed and readout was performed using the Topcount (Perkin Elmer). Kinase activity was calculated by subtracting counts per min (cpm) obtained in the presence of a positive control inhibitor (10 μM staurosporine) from cpm obtained in the presence of vehicle. The ability of a test compound to inhibit this activity was determined as: Percentage inhibition=((cpm determined for sample with test compound present−cpm determined for sample with positive control inhibitor)divided by(cpm determined in the presence of vehicle−cpm determined for sample with positive control inhibitor))*100.
Dose dilution series were prepared for the compounds enabling the testing of dose-response effects in the JAK1 assay and the calculation of the IC50 for each compound. Each compound was routinely tested at concentration of 20 μM followed by a ⅓ serial dilution, 8 points (20 μM-6.67 μM-2.22 μM-740 nM-247 nM-82 nM-27 nM-9 nM) in a final concentration of 1% DMSO. When potency of compound series increased, more dilutions were prepared and/or the top concentration was lowered (e.g. 5 μM, 1 μM).

Assay [2] concerns the target T2, Recombinant human JAK2 catalytic domain (Homo sapiens, UniProt O60674).
T2 construct: catalytic domain (amino acids 808-1132; catalog number PV4210); GST; purchased Invitrogen PV4210
Description: JAK2 assay polyGT substrate. As to conditions: 33P-gamma-ATP filter assay, 1 μM ATP. As to the method: Recombinant human JAK2 catalytic domain (amino acids 808-1132; catalog number PV4210) was purchased from Invitrogen. 0.05 mU of JAK2 was incubated with 2.5 μg polyGT substrate (Sigma catalog number P0275) in kinase reaction buffer (10 mM MOPS pH 7.5, 0.5 mM EDTA, 0.01% Brij-35, 1 mM DTT, 15 mM MgAc, 1 μM non-radioactive ATP, 0.25 μCi ^33P-gamma-ATP (Perkin Elmer, catalog number NEG602K001MC) final concentrations) with or without 5 μL containing test compound or vehicle (DMSO, 1% final concentration), in a total volume of 25 μL, in a polypropylene 96-well plate (Greiner, V-bottom). After 90 min at 30° C., reactions were stopped by adding of 25 μL/well of 150 mM phosphoric acid. All of the terminated kinase reaction was transferred to prewashed (75 mM phosphoric acid) 96 well filter plates (Perkin Elmer catalog number 6005177) using a cell harvester (Perkin Elmer). Plates were washed 6 times with 300 μL per well of a 75 mM phosphoric acid solution and the bottom of the plates was sealed. 40 μL/well of Microscint-20 was added, the top of the plates was sealed and readout was performed using the Topcount (Perkin Elmer). Kinase activity was calculated by subtracting counts per min (cpm) obtained in the presence of a positive control inhibitor (10 μM staurosporine) from cpm obtained in the presence of vehicle. The ability of a test compound to inhibit this activity was determined as: Percentage inhibition=((cpm determined for sample with test compound present−cpm determined for sample with positive control inhibitor)divided by(cpm determined in the presence of vehicle−cpm determined for sample with positive control inhibitor))*100.
Dose dilution series were prepared for the compounds enabling the testing of dose-response effects in the JAK2 assay and the calculation of the IC50 for each compound. Each compound was routinely tested at concentration of 20 μM followed by a ⅓ serial dilution, 8 points (20 μM-6.67 μM-2.22 μM-740 nM-247 nM-82 nM-27 nM-9 nM) in a final concentration of 1% DMSO. When potency of compound series increased, more dilutions were prepared and/or the top concentration was lowered (e.g. 5 μM, 1 μM).

A further assay concerns the target T3, JAK3 (Homo sapiens, UniProt P52333).
T3 construct: catalytic domain (amino acids 795-1124; catalog number 08-046); purchased Carna Biosciences 08-046
Description: JAK3 Ki determination assay. As to conditions: Lineweaver-Burk plot, polyGT substrate, varying ATP. Here is the method:
For the determination of Ki, different amounts of compound are mixed with the enzyme and the enzymatic reaction is followed as a function of ATP concentration. The Ki is determined by means of double reciprocal plotting of Km vs compound concentration (Lineweaver-Burk plot). JAK3 (Carna Biosciences, 08-046) was used at a final concentration of 20 ng/ml. The substrate was Poly(Glu,Tyr)sodium salt (4:1), MW 20 000-50 000 (Sigma, P0275) The reaction was performed in 25 mM Tris pH 7.5, 0.01% Triton X-100, 0.5 mM EGTA, 2.5 mM DTT, 0.5 mM Na3VO4, 5 mM b-glycerolphosphate, 10 mM MgCl2 with varying concentrations of ATP and compound and stopped by addition of 150 mM phosphoric acid. Measurement of incorporated phosphate into the substrate polyGT was done by loading the samples on a filter plate (using a harvester, Perkin Elmer) and subsequent washing. Incorporated ^33P in polyGT is measured in a Topcount scintillation counter after addition of scintillation liquid to the filter plates (Perkin Elmer).

Consider nine compounds from patent US8975406B2, “Compound useful for the treatment of degenerative and inflammatory diseases” (Galapagos N.V., priority 2011, dated 2015).

Molecules are shown by their SMILES. Some results are limits rather than exact numbers.

T1 sequence (P23458 866-1154): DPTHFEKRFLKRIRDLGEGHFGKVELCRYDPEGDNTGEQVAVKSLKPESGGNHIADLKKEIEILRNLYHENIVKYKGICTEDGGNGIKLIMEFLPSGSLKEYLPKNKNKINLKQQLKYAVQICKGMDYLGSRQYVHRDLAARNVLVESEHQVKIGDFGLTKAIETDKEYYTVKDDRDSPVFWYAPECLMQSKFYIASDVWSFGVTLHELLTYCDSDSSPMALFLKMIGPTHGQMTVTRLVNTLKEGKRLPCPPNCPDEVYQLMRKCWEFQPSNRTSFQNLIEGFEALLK
T2 sequence (O60674 808-1132): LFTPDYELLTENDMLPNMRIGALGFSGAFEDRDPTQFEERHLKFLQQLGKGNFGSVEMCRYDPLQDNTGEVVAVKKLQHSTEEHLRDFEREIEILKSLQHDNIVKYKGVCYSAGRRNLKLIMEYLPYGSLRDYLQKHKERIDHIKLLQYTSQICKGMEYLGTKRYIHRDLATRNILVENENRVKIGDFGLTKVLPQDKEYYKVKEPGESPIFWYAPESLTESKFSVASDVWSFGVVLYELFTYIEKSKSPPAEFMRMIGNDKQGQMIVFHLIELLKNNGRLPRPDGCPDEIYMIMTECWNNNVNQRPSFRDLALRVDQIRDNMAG
T3 sequence (P52333 795-1124): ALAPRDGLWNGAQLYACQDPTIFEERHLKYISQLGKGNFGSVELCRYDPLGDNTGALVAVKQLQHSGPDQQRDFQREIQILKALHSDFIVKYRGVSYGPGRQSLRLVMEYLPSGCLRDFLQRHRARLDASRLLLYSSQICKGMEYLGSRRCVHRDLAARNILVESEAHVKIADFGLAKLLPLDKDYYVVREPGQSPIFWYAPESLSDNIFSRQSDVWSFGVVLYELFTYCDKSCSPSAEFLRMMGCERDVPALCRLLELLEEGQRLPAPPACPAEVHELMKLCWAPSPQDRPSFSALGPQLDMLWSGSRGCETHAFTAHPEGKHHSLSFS

`O=C(NCCOc1ccccc1)c1ccc(-c2cccn3nc(NC(=O)C4CC4)cc23)cc1` [Compound 6, 4-(2-(cyclopropanecarboxamido)pyrazolo[1,5-a]pyridin-4-yl)-N-(2-phenoxyethyl)benzamide]: the IC50 in assay [1] and in assay [2] was 0.01 to 100 nM each time.
Turning to `O=C(Nc1cc2c(-c3ccc(OCc4ccccc4)cc3)cccn2n1)C1CC1` [Compound 2, N-(4-(4-(benzyloxy)phenyl)pyrazolo[1,5-a]pyridin-2-yl)cyclopropanecarboxamide], the results for the IC50 in assay [1] and in assay [2] were 0.01 to 100 nM and 101 to 500 nM, respectively.
As for `COc1ccc(-c2cccn3nc(NC(=O)C4CC4)c(-c4ccccc4)c23)cc1` [Compound 7, N-(4-(4-methoxyphenyl)-3-phenylpyrazolo[1,5-a]pyridin-2-yl)cyclopropanecarboxamide], the IC50 in assay [1] and in assay [2] was more than 1000 nM each time.
As to `O=C(NCCc1ccccc1)c1ccc(-c2cccn3nc(NC(=O)C4CC4)cc23)cc1` [Compound 5, 4-(2-(cyclopropanecarboxamido)pyrazolo[1,5-a]pyridin-4-yl)-N-phenethylbenzamide], the IC50 in assay [1] and in assay [2] was 0.01 to 100 nM in each case.
As to `O=C(Nc1cc2c(-c3ccc(OCc4cccnc4)cc3)cccn2n1)C1CC1` [Compound 8, N-(4-(4-(pyridin-3-ylmethoxy)phenyl)pyrazolo[1,5-a]pyridin-2-yl)cyclopropanecarboxamide], the IC50 in assay [1] and in assay [2] was 0.01 to 100 nM each time.
For the compound `O=C(Nc1cc2c(-c3ccc4c(ccn4Cc4ccccc4)c3)cccn2n1)C1CC1` [Compound 3, N-(4-(1-benzyl-1H-indol-5-yl)pyrazolo[1,5-a]pyridin-2-yl)cyclopropanecarboxamide], the IC50 was 0.01 to 100 nM in assay [1] and 101 to 500 nM in assay [2].
As for `O=C(Nc1cc2c(-c3ccc4[nH]ccc4c3)cccn2n1)C1CC1` [Compound 4, N-(4-(1H-indol-5-yl)pyrazolo[1,5-a]pyridin-2-yl)cyclopropanecarboxamide], the IC50 in assay [1] and in assay [2] was 0.01 to 100 nM in each case.
Compound `CC(=O)Nc1cc2c(-c3ccc(CN4CCN(S(C)(=O)=O)CC4)c(F)c3)cccn2n1` [Compound 21] came in with a Ki at JAK3 of 227 nM.
Regarding `COc1ccc(-c2cccn3nc(NC(=O)C4CC4)cc23)cc1` [Compound 1, N-(4-(4-methoxyphenyl)pyrazolo[1,5-a]pyridin-2-yl)cyclopropanecarboxamide], the IC50 in assay [1] and in assay [2] was 0.01 to 100 nM in each case.
